How the values were obtained:
[1] = test system: Brassica napus microspore cotyledonary embryos; assay: Germination capacity of embryos produced in treated microspore cultures; assay type: cell-based; conditions: cotyledonary embryos from 30-40 days cultures, desiccated and cultured under germination conditions
Method: To evaluate the quality of embryos produced in microspore embryogenesis cultures in the presence of the inhibitors, embryo germination assays were performed. Brassica napus microspore cotyledonary embryos originated from control and treated-cultures were used for in vitro embryo germination and conversion to plantlets as previously described (Prem et al., 2012 BMC Plant Biology 12, 127). The 34-40 old dicotyledonous embryos, after air desiccation on sterile filter paper were germinated in MS (Murashige and Skoog) medium containing sucrose 2% (w/v) and gelled with 7 g/L bacteriological agar (w/v). Microspore derived-embryos were incubated for 15-20 days at 18° C. in darkness conditions till activation of radicle and plumule, and quantified in terms of percentage of embryos showing normal growth, similar to zygotic embryo germination.

[2] = test system: Arabidopsis mesophyll protoplasts; assay: Microcallus formation (proliferation efficiency) in immobilized mesophyll protoplasts; assay type: cell-based, Arabidopsis thaliana; conditions: 48 h pulse treatment
Method: Seeds of an Arabidopsis thaliana line overexpressing histone 2B fused with yellow fluorescent protein (H2B-YFP) were surface-sterilized and sown on MS agar. After 24 h stratification, plates were cultured vertically for 7 days under long day conditions (16 h light-8 h dark) at 22° C. Prior to seedling harvest, plates were kept vertically in the dark at 4° C. for 24 h. Protoplasts were isolated from hypocotyl and cotyledons including primary leaves according to Dovzhenko et al., Protoplasma, 222(1-2):107-11 (2003).
Protoplast density was determined by cell counting in a Fuchs-Rosenthal chamber. For immobilization, protoplasts were mixed with equal volumes of 1.2% (w/v) low melting agarose in protoplast buffer, prewarmed at 40° C. and immediately pipetted into a 96-well plate (Ibidi, Germany), prewarmed at 34° C. with 125 μL per well. The plate was immediately centrifuged (2 min, 30 g) and incubated at 4° C. for 5 min, 200 μL of cultivation medium was added on top of each well and the protoplasts were cultivated at 22° C. in the dark. Cultivation medium was composed of macro and micro elements based on Kao K N and Michayluk M R. Planta., 126(2):105-10 (1975), supplemented with 2 μM of 2,4-D and 1 μM of thidiazurone. For PDE inhibitors treatments, PDE inhibitors were dissolved in DMSO and added to the medium with the concentration given (liquid media). […]
An automated microscope (MORE1, Till I.D. GmbH, Munich, Germany) was used for the analysis of protoplast development and for the detection of YFP fluorescence. Transillumination was recorded with 10×0.45 and 20×0.8 objectives (Zeiss); epifluorescence was recorded after excitation with single-mode diode lasers (iBeam smart, Toptica) with excitation of 550 nm (YFP)/green emission filter. […]
Images were recorded immediately after immobilization and 10 days after immobilization (DAIs). […] Quantification of proliferating cells was performed by exploiting shape differences of dividing or closely adjacent nuclei after the application of EDM binary operations on epifluorescence images in comparison with circular fluorescence signals from non-dividing mononucleic cells (Brocher Int. J. Image Process, 8, 30-48 (2014)). Corresponding cellular shape parameters from proliferating microcalli were determined from selecting segmented transillumination images after filtering with processed epiflourescence images using the BioVoxxel binary feature extraction function.
PDE inhibitors were tested for their capability to increase the proliferation rate of Arabidopsis protoplasts isolated from leaves. […] Microscopic images were recorded 10 days after immobilization and proliferating microcalli were identified by the presence of multiple fluorescing nuclei visualized by exploiting the nuclear-encoded H2B-YFP marker (see FIG. 3). […]

COc1ccc(C2CNC(=O)C2)cc1OC1CCCC1 (stereo not drawn) [FDA4.22, 4-(3-cyclopentyloxy-4-methoxyphenyl)pyrrolidin-2-one, reference compound]
germination capacity / quality of embryos [1]: well-developed roots and hypocotyls in most embryos

O=C(Nc1c(Cl)cncc1Cl)c1ccc(OC(F)F)c(OCC2CC2)c1 [FDA4.21, 3-(cyclopropylmethoxy)-N-(3,5-dichloropyridin-4-yl)-4-(difluoromethoxy) benzamide, reference compound]
germination capacity / quality of embryos [1]: well-developed roots and hypocotyls in most embryos

Cc1oc(-c2ccccc2F)nc1CN1CCC[C@@H](C(=O)NCc2cccc(Cl)c2)C1 [JHD1.48, (R)—N-(3-chlorobenzyl)-1-((2-(2-fluorophenyl)-5-methyloxazol-4-yl)methyl) piperidin-3-carboxamide]
germination capacity / quality of embryos [1]: well-developed roots and hypocotyls in most embryos
microcalli formation rate increased by, relative to the untreated control ([2]; 10 μM): 50%

COc1ccc(-c2nc(-c3ccccc3Br)[nH]c2-c2ccc(OC)cc2)cc1 [AGF4.17, 2-(2-Bromophenyl)-4,5-bis(4-methoxyphenyl)-1H-imidazole]
germination capacity / quality of embryos [1]: well-developed roots and hypocotyls in most embryos
induction of microcallus formation compared with the untreated control ([2]; 10 μM): 250%

CSc1nc2ccccc2c(=O)n1-c1c(F)cccc1F [TC2.43, 3-(2,6-Difluorophenyl)-2-methylthio-4-oxo-3,4-dihydroquinazoline]
germination capacity / quality of embryos [1]: well-developed roots and hypocotyls in most embryos
increased rate of microcalli formation relative to the untreated control ([2]; 1 μM): 140%
microcalli formation rate increased by, relative to the untreated control ([2]; 10 μM): 200%
